Assay results reported in patent US20250186324A1, “SYNERGISTIC SKIN DEPIGMENTING COSMETIC COMPOSITION” (priority 2022, published 2025).

Experiments:
Wnt pathway = Wnt pathway in melanocytes: melanogenesis-regulating gene expression after BIO stimulation (qPCR); format: cell-based, human; details: 0.1 μM BIO; 0.5 and 5 μM apigenin or 10 and 25 μM phloretin; 24 hours; genes TYRP1, DCT, PAX3, PMEL17
Description: After the treatment, the RNA was extracted (Norgen, #17200) and a real-time qPCR was performed (Takara, #R[…]) on the TYRP1, DCT, PAX3 and PMEL17 genes.

tyrosinase = details: spectroscopy and chromatography; cited from earlier work
SCF pathway = SCF pathway in melanocytes: melanogenesis-regulating gene expression after CBD stimulation (qPCR); format: cell-based, human; details: 2.5 μM cannabidiol; 0.5 and 5 μM apigenin or 10 and 25 μM phloretin; 24 hours; genes DCT, PAX3
Description: In order to assess the inhibition of the SCF pathway in melanocytes, human epidermal melanocytes were cultured with 2.5 μM cannabidiol (CBD)+0.5 and 5 μM apigenin or 10 and 25 μM phloretin for 24 hours. After the treatment, the RNA was extracted (Norgen, #17200) and a real-time qPCR was performed (Takara, #R[…]) on the DCT and PAX3 genes.

DKK1 = DKK1 gene expression (real-time qPCR) in dermal fibroblasts; format: cell-based, human; details: 10 and 25 μM apigenin, 24 hours
Description: (§1) To assess the levels of key pigmentation regulatory markers in fibroblasts, dermal fibroblasts (Promocell, #C-12302) were cultured for 24 hours with the active ingredient apigenin. After the treatment, the RNA was extracted (Norgen, #17200) and real-time qPCR was performed (Takara, #R[…]) on the DKK1 and VEGF genes.

VEGF = VEGF gene expression (real-time qPCR) in dermal fibroblasts; format: cell-based, human; details: 10 and 25 μM apigenin, 24 hours
Description: as §1

miR-675 = miR-675 levels in melanocytes (real-time qPCR); format: cell-based; details: human epidermal melanocytes, 0.5 μM apigenin, 24 hours
Description: In order to assess the effect of miRNA levels in melanocytes, human epidermal melanocytes were cultured with 0.5 μM apigenin or 10 μM phloretin for 24 hours. After the treatment, the RNA was extracted (Norgen, #17200) and a real-time qPCR was performed (Takara, #638313) on miR-675.

skin hyperpigmentation = details: mice treated with UVB; cited from earlier work

Row | SMILES | expression of melanogenesis-regulating genes after stimulation with BIO (Wnt pathway) | action on tyrosinase (tyrosinase) | expression of the melanogenesis-regulating genes after stimulation with CBD (SCF pathway) | DKK1 expression (DKK1) | VEGF expression (VEGF) | miR-675 levels (miR-675) | skin hyperpigmentation (skin hyperpigmentation)
1 | O=C(CCc1ccc(O)cc1)c1c(O)cc(O)cc1O [phloretin, 3-(4-hydroxyphenyl)-1-(2,4,6-trihydroxyphenyl)propane-1-one] | significantly reduce | a tyrosinase substrate but also an inhibitor | significantly reduce | – | – | – | –
2 | O=c1cc(-c2ccc(O)cc2)oc2cc(O)cc(O)c12 [apigenin, 5,7-dihydroxy-2-(4-hydroxyphenyl)-4H-1-benzopyran-4-one] | significantly reduce | – | significantly reduce | significantly induces | reduces | significantly increasing | inhibits
